# Laboratory results taken from article PMC6331910, “The Curcumin Analogue 1,5-Bis(2-hydroxyphenyl)-1,4-pentadiene-3-one Induces Apoptosis and Downregulates E6 and E7 Oncogene Expression in HPV16 and HPV18-Infected Cervical Cancer Cells” (Molecules, 2015).
# Key:
# CaSki = assay: MTT cell viability (dose-dependent cytotoxicity) assay, 72 h; type: cell-based, human; settings: for reduction in cell viability: CaSki
# Description: (§1) Control-treated wells contained cells incubated in media with equal volumes of DMSO (0.2%). […] The media was aspirated and cells were incubated in 100 µL complete medium with 0.5 mg/mL MTT solution for 4 h in the dark to allow metabolism of MTT by cellular mitochondrial dehydrogenases. The excess MTT was aspirated and the formazan crystals formed were dissolved by the addition of 100 µL of DMSO. The absorbance of dark blue formazan was read at 570/650 nm wavelengths using a microplate reader (Bio-Rad Benchmark Plus Microplate Spectrophotometer, Hercules, CA, USA). Triplicate absorbance values were averaged and the effect of the compounds on growth inhibition was assessed as percentage cell viability as follows: […] The results were analysed using GraphPad Prism version 6.00 for Windows (GraphPad Software, La Jolla, CA, USA). […] Overall EC50 was determined by taking the average EC50 from three independent experiments.
# HeLa = assay: as above; type: cell-based, human
# Description: as §1
smiles,measurement,setting,value
"O=C(C=Cc1ccccc1O)C=Cc1ccccc1O [MS17, 1,5-bis(2-hydroxyphenyl)-1,4-pentadiene-3-one]",reduction in cell viability,"CaSki; 1.6 μM, 72 h",30%
same,reduction in cell viability,"CaSki; 3.1 to 100 μM, 72 h",90%
same,Selective Index CaSki,CaSki; EC50 (MRC9)/EC50 (CaSki) × 100,447
same,EC50,"CaSki; Homo sapiens, Ca-Ski, MTT, 72 h, read-out: EC50 (Mean ± S.E.M.) CaSki",1.03 ± 0.5 µM
same,Selective Index HeLa,HeLa; EC50 (MRC9)/EC50 (HeLa) × 100,177
same,cell viability,"HeLa; HeLa, 12.5 to 100 μM, 72 h",less than 10%
same,EC50,"HeLa; Homo sapiens, HeLa, MTT, 72 h, read-out: EC50 (Mean ± S.E.M.) HeLa",2.6 ± 0.9 µM
same,viability at 3.1 µM,"HeLa; Homo sapiens, HeLa, 3.1 μM, 72 h",36%
same,viability at 6.3 µM,"HeLa; Homo sapiens, HeLa, 6.3 μM, 72 h",14%
